Active and inactive are the calls of the source.
What was measured:
[1] = target: Cytochrome P450 2D6 (Homo sapiens, UniProt P10635);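 also: CYP2D6 member of a cytochrome P450 panel assay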
[2] = target: Cytochrome P450 2C9 (Homo sapiens, UniProt P11712)
[3] = tested on: HEK293; experiment: NOD1 signaling inhibitors, primary screen, cell-based, luminescence, uHTS (AID 1578); format: functional; conditions: Homo sapiens
[4] = tested on: HEK293; experiment: cells; format: functional, cell-based; conditions: Homo sapiens
[5] = target: Nucleotide-binding oligomerization domain-containing protein 2 (Homo sapiens, UniProt Q9HC29); experiment: NOD2 signaling inhibitors, cell-based, luminescence, uHTS, HEK293 (AID 1566); format: functional
Nucleotide-binding oligomerization domain-containing protein 2, sequence (Q9HC29 whole entry, the tested form may be a part): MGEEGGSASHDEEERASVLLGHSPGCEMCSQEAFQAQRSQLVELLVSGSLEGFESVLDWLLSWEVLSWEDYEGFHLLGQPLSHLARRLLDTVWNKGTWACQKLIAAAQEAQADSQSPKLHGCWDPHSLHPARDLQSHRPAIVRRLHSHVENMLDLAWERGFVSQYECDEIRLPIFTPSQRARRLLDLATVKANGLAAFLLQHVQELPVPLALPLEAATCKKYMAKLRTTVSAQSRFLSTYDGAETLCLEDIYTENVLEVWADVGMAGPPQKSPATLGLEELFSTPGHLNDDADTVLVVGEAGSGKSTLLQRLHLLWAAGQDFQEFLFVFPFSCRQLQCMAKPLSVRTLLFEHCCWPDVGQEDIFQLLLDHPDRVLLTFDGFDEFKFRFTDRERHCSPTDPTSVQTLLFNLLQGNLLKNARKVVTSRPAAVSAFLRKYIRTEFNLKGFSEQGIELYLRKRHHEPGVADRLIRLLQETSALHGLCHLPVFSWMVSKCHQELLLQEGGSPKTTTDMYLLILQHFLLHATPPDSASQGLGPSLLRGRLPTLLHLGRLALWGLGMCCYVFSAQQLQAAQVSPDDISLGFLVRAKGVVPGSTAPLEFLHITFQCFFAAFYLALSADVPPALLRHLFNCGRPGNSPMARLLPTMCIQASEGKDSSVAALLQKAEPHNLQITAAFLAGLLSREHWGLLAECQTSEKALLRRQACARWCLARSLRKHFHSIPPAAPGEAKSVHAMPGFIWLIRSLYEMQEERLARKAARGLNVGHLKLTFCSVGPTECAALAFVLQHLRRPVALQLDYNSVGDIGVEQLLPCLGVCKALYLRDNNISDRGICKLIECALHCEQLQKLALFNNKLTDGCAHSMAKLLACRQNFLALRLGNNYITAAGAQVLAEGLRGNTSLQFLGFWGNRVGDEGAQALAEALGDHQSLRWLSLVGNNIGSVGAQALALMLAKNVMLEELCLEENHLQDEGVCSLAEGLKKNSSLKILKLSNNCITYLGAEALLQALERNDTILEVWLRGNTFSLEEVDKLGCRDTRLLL

[6] = tested on: HEK293; experiment: cells; format: functional, cell-based; conditions: Homo sapiens; remark: listed apart in the source
[7] = tested on: HEK293; experiment: cells; format: functional, cell-based; conditions: Homo sapiens; remark: listed apart in the source
[8] = cytotoxicity in HEK-293T cells, dose response, cytotoxicity control for TCR NF-kB inhibitor project, luminescence, T-cell screen hits (AID 489026); format: functional, cell-based;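 also: cells exposed to compound about 14 hours before the viability readout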
[9] = target: Tumor necrosis factor (Homo sapiens, UniProt P01375); experiment: TNFa-triggered NF-kB activation inhibitors, SAR follow-up, cell-based, revised (AID 2337); format: functional
[10] = tested on: HEK293; experiment: NOD2 signaling inhibitors in MDP-stimulated cells, cell-based, uHTS, luminescence (AID 2001); format: functional; conditions: Homo sapiens
[11] = target: Nucleotide-binding oligomerization domain-containing protein 1 (Homo sapiens, UniProt Q9Y239); experiment: NOD1 signaling inhibitors, SAR follow-up, revised (AID 2333); format: functional
[12] = target: Induced myeloid leukemia cell differentiation protein Mcl-1 (Homo sapiens, UniProt Q07820); format: functional
Induced myeloid leukemia cell differentiation protein Mcl-1, sequence (Q07820 whole entry): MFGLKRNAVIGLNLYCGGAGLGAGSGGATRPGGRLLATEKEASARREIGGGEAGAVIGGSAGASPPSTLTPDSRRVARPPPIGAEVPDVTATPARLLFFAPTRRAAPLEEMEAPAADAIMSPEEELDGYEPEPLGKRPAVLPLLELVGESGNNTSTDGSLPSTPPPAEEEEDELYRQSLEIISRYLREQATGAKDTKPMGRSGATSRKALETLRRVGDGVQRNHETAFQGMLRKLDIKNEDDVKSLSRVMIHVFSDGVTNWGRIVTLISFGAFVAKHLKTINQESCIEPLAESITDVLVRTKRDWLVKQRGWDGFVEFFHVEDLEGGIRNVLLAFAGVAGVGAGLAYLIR

[13] = tested on: HEK293; experiment: cells; conditions: Homo sapiens
[14] = target: CAAX prenyl protease 2 (Homo sapiens, UniProt Q9Y256); experiment: human Rce1 protease inhibitors, dose response, biochemical, yeast membranes, quenched-peptide fluorescence, cherry-pick (AID 588849)
CAAX prenyl protease 2 (Homo sapiens, UniProt Q9Y256), sequence (Q9Y256 whole entry): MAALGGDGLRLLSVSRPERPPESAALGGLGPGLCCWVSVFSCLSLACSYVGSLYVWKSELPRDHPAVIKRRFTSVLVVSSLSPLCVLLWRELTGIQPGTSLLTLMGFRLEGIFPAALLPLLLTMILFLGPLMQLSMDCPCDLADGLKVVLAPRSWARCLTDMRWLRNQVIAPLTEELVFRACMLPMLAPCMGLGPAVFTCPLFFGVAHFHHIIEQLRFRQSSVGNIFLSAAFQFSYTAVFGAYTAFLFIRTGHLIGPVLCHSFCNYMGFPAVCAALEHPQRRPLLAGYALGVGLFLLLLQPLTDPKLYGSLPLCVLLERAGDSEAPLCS

[15] = target: Genome polyprotein (dengue virus type 2, UniProt P29990); experiment: Dengue-2 NS5 methyltransferase inhibitors, primary screen, biochemical, confirmation dose response (AID 588689); format: functional
Genome polyprotein, sequence (P29990 2492-3391 limits assumed): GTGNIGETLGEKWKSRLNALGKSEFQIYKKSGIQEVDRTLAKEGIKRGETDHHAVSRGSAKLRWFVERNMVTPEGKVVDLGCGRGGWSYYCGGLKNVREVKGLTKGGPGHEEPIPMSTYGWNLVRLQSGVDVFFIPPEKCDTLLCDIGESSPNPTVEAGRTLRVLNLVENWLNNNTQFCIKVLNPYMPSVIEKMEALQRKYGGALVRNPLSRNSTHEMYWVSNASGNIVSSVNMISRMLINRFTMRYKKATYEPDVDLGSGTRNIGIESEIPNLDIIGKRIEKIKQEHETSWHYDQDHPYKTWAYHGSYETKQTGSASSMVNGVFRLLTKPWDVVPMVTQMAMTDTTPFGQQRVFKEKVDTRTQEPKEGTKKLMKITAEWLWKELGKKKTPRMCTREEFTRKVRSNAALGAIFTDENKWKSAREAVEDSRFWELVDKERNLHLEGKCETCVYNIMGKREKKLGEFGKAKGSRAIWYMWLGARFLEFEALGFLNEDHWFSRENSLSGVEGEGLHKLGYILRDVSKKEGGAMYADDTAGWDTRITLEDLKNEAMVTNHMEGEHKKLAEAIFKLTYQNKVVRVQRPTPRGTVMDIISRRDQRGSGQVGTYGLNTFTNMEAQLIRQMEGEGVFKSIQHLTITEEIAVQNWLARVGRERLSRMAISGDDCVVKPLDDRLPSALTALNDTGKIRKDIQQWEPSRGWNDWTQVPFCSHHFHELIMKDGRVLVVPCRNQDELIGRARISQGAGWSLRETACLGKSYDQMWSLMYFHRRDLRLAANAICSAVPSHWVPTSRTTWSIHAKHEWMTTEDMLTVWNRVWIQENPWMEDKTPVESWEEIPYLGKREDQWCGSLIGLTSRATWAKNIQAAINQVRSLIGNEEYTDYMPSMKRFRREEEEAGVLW

[16] = target: T1, Sentrin-specific protease 6 (Homo sapiens, UniProt Q9GZR1); format: functional;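 also: Luminescence-based dose-response confirmatory assay of SENP6 inhibition, following up an ultra-high-throughput screen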
T1 sequence (Q9GZR1 whole entry): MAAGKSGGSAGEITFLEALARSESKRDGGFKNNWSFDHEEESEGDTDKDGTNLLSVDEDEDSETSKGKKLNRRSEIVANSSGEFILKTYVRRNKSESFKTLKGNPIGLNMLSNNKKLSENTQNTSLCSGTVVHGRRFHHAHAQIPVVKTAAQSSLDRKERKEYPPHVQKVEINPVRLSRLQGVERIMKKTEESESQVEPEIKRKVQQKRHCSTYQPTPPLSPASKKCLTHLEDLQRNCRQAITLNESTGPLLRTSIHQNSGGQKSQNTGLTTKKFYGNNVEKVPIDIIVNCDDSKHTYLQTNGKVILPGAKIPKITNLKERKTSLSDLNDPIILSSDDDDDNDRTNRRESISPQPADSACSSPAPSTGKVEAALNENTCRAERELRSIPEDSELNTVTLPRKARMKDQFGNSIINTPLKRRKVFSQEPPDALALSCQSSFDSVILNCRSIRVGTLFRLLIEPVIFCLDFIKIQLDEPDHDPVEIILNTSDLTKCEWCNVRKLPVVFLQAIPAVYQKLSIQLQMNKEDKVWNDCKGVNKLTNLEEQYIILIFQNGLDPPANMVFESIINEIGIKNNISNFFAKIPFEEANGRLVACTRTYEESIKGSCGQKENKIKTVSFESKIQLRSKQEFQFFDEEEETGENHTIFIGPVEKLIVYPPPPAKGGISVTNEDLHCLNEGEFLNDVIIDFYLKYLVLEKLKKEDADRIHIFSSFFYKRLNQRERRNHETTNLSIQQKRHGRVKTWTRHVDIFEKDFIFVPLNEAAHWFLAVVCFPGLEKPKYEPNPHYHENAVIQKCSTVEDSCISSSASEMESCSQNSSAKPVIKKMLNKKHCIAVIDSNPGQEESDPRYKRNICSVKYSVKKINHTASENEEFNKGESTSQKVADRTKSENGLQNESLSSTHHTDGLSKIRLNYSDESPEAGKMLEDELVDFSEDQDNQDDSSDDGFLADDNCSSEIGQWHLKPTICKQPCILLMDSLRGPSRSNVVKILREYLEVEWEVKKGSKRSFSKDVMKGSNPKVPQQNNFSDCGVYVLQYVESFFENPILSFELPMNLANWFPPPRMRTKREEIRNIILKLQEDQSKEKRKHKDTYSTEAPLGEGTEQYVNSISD

[17] = target: FAD-linked sulfhydryl oxidase ALR (Homo sapiens, UniProt P55789); experiment: inhibitors of human ALR sulfhydryl oxidase, dose response, biochemical, H2O2 detection, luminescence, cherry-pick (AID 493248)
FAD-linked sulfhydryl oxidase ALR, sequence (P55789 whole entry): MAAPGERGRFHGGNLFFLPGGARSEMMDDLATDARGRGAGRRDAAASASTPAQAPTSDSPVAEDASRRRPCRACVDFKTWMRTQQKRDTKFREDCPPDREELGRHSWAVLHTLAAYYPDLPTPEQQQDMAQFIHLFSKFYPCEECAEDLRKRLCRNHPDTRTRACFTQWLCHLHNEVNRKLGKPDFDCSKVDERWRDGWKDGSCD

[18] = target: CAAX prenyl protease 1 (Saccharomyces cerevisiae S288c, UniProt P47154); experiment: Ste24 protease inhibitors, dose response, biochemical, S. cerevisiae, plate reader, cherry-pick (AID 488815)
CAAX prenyl protease 1, sequence (P47154 whole entry): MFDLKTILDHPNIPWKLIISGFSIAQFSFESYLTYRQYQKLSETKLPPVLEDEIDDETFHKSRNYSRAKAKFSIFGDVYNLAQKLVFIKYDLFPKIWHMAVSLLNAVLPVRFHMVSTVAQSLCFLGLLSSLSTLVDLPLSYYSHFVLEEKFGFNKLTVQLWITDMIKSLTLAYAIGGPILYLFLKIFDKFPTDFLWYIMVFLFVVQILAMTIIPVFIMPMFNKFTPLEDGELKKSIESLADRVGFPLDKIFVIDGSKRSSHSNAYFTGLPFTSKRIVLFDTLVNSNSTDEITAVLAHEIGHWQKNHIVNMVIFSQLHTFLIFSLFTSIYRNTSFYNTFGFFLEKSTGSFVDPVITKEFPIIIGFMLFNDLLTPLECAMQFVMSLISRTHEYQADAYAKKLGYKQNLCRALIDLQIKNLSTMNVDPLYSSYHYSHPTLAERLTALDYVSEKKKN

[19] = target: CAAX prenyl protease 2 (Saccharomyces cerevisiae S288c, UniProt Q03530); format: biochemical
CAAX prenyl protease 2 (Saccharomyces cerevisiae S288c, UniProt Q03530), sequence (Q03530 whole entry): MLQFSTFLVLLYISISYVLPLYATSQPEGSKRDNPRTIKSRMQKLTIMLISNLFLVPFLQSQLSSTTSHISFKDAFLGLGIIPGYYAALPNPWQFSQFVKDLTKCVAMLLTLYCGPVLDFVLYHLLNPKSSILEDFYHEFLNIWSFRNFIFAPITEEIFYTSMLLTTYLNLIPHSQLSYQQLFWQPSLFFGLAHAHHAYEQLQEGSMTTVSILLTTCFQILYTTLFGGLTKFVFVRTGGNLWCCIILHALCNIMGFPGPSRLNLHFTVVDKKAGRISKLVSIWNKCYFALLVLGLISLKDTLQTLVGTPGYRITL

[20] = target: T2, Sentrin-specific protease 8 (Homo sapiens, UniProt Q96LD8); format: functional;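 also: luminescence read-out of SENP8 inhibition, dose-response confirmation following an ultra-high-throughput screen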
T2 sequence (Q96LD8 whole entry): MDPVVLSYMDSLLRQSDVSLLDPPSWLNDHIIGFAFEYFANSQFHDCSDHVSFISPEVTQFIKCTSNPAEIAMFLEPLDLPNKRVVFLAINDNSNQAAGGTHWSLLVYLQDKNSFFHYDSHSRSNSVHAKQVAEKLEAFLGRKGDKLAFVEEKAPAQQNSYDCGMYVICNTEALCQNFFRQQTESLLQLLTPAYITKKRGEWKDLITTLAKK

[21] = target: T3, Sentrin-specific protease 7 (Homo sapiens, UniProt Q9BQF6); format: functional;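 also: Luminescence-based dose-response confirmation of ultra-high-throughput screening hits, measuring inhibition of SENP7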
T3 sequence (Q9BQF6 whole entry): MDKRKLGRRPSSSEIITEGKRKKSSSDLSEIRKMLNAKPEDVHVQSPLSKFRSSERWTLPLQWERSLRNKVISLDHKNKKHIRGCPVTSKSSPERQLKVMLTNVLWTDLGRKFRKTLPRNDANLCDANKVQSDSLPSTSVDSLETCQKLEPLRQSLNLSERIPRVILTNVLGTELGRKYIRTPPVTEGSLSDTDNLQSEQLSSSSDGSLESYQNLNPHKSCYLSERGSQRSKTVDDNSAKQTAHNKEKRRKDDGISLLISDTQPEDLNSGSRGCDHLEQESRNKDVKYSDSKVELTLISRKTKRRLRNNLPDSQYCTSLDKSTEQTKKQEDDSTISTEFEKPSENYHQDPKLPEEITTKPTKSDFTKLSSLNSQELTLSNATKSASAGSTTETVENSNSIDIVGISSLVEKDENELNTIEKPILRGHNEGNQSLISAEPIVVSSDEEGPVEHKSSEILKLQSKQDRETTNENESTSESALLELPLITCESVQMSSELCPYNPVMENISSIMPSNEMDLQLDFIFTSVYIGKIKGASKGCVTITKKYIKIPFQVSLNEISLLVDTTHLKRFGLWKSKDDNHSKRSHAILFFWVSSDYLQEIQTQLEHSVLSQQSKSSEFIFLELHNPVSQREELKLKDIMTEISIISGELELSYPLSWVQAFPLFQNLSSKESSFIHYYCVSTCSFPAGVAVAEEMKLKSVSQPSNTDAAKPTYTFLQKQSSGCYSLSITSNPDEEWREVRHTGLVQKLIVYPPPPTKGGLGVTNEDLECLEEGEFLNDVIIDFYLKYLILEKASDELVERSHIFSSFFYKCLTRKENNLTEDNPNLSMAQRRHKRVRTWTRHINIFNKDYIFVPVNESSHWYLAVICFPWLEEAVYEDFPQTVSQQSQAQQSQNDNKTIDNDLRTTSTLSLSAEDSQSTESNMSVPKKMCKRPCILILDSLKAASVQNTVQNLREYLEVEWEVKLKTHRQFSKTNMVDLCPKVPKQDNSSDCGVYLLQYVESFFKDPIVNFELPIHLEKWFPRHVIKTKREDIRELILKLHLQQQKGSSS

[22] = target: T4, Calpain-2 catalytic subunit (Sus scrofa, UniProt P43367); experiment: pig calpain II inhibitor potency, dose response, biochemical, fluorogenic peptide substrate (AID 1420); format: functional
T4 sequence (P43367 whole entry): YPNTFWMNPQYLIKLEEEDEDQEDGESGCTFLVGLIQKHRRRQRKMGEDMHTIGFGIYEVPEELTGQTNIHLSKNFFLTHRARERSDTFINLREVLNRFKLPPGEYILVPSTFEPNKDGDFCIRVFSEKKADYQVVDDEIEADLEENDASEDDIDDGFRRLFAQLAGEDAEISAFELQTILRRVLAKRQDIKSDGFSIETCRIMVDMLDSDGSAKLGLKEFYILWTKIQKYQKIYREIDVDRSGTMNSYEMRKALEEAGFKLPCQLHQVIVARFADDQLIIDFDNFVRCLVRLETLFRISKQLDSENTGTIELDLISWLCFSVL

[23] = target: Trypsin (Sus scrofa, UniProt P00761); experiment: porcine trypsin inhibitors, dose response, selectivity assay for Rce1 protease inhibitor project, biochemical, quenched peptide fluorescence, cherry-pick (AID 488789)
Trypsin, sequence (P00761 whole entry): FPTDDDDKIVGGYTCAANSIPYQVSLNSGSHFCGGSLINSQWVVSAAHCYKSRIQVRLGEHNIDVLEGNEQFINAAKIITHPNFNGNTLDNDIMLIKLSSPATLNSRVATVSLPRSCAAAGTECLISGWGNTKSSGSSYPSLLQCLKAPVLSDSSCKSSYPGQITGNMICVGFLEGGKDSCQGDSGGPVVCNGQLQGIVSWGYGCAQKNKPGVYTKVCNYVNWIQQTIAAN

[24] = target: T5, Caspase-3 (Homo sapiens, UniProt P42574); format: functional;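 also: Dose-response selectivity test against caspase-3 for candidate inhibitors of sentrin-specific proteases (SENPs)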
T5 sequence (P42574 whole entry): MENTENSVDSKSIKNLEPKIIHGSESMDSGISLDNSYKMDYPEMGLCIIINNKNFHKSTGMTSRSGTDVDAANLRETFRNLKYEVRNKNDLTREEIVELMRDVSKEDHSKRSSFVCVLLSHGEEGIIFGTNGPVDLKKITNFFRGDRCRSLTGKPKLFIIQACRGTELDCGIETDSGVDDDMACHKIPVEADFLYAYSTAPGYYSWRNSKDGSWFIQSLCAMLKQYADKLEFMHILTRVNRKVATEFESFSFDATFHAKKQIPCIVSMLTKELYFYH

Cytochrome P450 2D6, sequence (P10635 whole entry): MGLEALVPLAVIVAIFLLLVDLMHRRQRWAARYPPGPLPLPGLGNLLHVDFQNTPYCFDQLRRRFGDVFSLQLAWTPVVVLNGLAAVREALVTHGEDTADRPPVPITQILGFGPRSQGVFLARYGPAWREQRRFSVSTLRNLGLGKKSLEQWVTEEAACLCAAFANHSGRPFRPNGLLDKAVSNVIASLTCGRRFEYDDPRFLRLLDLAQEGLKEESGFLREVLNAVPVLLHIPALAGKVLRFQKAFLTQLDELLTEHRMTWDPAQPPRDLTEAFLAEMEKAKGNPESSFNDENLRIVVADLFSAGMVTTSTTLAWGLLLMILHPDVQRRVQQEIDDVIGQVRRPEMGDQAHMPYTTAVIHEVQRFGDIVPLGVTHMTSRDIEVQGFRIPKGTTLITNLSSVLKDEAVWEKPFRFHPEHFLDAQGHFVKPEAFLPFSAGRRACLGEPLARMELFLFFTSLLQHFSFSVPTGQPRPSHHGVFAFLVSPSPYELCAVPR
Cytochrome P450 2C9, sequence (P11712 whole entry): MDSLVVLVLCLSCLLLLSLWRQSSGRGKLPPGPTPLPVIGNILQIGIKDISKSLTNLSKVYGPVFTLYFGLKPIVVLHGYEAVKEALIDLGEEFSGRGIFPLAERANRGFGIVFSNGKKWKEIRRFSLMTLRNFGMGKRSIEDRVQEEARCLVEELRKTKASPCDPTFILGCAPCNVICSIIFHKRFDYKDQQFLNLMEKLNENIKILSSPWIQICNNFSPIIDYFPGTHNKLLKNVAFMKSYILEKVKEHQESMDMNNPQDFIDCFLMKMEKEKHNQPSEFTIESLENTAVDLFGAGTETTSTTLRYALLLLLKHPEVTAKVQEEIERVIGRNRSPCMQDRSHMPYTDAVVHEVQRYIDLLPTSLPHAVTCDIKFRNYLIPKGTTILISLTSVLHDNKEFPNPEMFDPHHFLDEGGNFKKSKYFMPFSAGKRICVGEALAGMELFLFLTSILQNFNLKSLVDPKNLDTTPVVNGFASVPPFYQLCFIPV

## Nn1c(SCC(=O)N2CCOCC2)nnc1-c1ccccc1Cl
[1]
  AC50: inconclusive
[2]
  AC50: 0.0794 µM (inconclusive)

## COC(=O)c1ccc2nc(Nc3nc4c(F)cc(F)cc4s3)sc2c1
[3]
  EC50: 3.03 µM (active)
[4]
  IC50: > 20 µM (inactive)
[5]
  EC50: 0.3 µM (active)
[6]
  IC50: > 20 µM (inactive)
[7]
  IC50: 0.666 µM (active)
[8]
  IC50: > 80 µM (inactive)
[9]
  IC50: 0.23 µM (active)
[10]
  IC50: 1.92 µM (active)
[11]
  IC50: 0.429 µM (active)
[12]
  IC50: 2.8 µM (active)
[13]
  IC50: 9.76 µM (active)

## O=C(O)c1ccc(N/N=C/c2cn(Cc3ccccc3F)c3ccccc23)cc1
[14]
  AC50: 5.18 µM (active)
[15]
  IC50: 64.1 µM (active)
[16]
  IC50: 2.6 µM (active)
[17]
  AC50: 2.1 µM (active)
[18]
  AC50: 5.53 µM (active)
[19]
  AC50: 4.78 µM (active)
[20]
  IC50: 2.92 µM (active)
[21]
  IC50: 3.24 µM (active)
[22]
  IC50: < 0.4 µM (not active)
[23]
  AC50: 13.8 µM (active)
[24]
  IC50: 22.7 µM (active)
